Assays:
[1] = tested on: bedstraw; assay: Test B pre/postemergence bedstraw; format: in vivo, Galium aparine
In short: (§1)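 Herbicidal effect was estimated by eye on a ten-point control scale after plants spent twelve to sixteen days in a greenhouse following soil or foliar treatment. Foliar sprays targeted plants at one to four leaves; all doses were formulated in a non-phytotoxic solvent with surfactant.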

[2] = tested on: blackgrass; assay: Test B pre/postemergence blackgrass; format: in vivo, Alopecurus myosuroides
In short: as §1

[3] = tested on: surinam grass; assay: Test B pre/postemergence surinam grass; format: in vivo, Brachiaria decumbens
In short: as §1

[4] = tested on: corn; assay: Test B pre/postemergence corn; format: in vivo, Zea mays
In short: as §1

[5] = tested on: crabgrass; assay: Test B pre/postemergence crabgrass; format: in vivo, Digitaria sanguinalis
In short: as §1

[6] = tested on: giant foxtail; assay: Test B pre/postemergence giant foxtail; format: in vivo, Setaria faberii
In short: as §1

[7] = tested on: rape; assay: Test B pre/postemergence rape; format: in vivo, Brassica napus
In short: as §1

[8] = tested on: sugar beet; assay: Test B pre/postemergence sugar beet; format: in vivo, Beta vulgaris
In short: as §1

[9] = tested on: velvetleaf; assay: Test B pre/postemergence velvetleaf; format: in vivo, Abutilon theophrasti
In short: as §1

[10] = tested on: wheat; assay: Test B pre/postemergence wheat; format: in vivo, Triticum aestivum
In short: as §1

[11] = tested on: wild oat; assay: Test B pre/postemergence wild oat; format: in vivo, Avena fatua
In short: as §1

[12] = tested on: purple nutsedge; assay: Test B pre/postemergence purple nutsedge; format: in vivo, Cyperus rotundus
In short: as §1

[13] = tested on: rice; assay: Test B flood test rice; format: in vivo, Oryza sativa
In short: (§2)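 Flood test on plants grown to the 2-leaf stage; treated plants kept in greenhouse twelve to sixteen days, then visually rated against controls on a 0 (no effect) to 10 (complete control) scale.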

[14] = tested on: smallflower flatsedge; assay: Test B flood test smallflower flatsedge; format: in vivo, Cyperus difformis
In short: as §2

[15] = tested on: duck salad; assay: Test B flood test duck salad; format: in vivo, Heteranthera limosa
In short: as §2

[16] = tested on: bamyardgrass; assay: Test B flood test barnyardgrass; format: in vivo, Echinochloa crus-galli
In short: as §2

[17] = Preemergence, Rate 62 g/ha, scale of 0 to 10 where 0 is no effect and 10 is complete control
[18] = Preemergence, Rate 500 g/ha, scale of 0 to 10 where 0 is no effect and 10 is complete control
[19] = Rate 62 g/ha, Postemergence, scale 0 to 10 (0 no effect, 10 complete control)
[20] = Rate 125 g/ha, Postemergence, scale of 0 to 10 where 0 is no effect and 10 is complete control
[21] = Preemergence, Rate 250 g/ha, scale of 0 to 10 where 0 is no effect and 10 is complete control
[22] = Rate 250 g/ha, Postemergence, scale of 0 to 10 where 0 is no effect and 10 is complete control
[23] = Rate 500 g/ha, Postemergence, scale 0 to 10, 0 no effect, 10 complete control
[24] = Rate 62 g/ha, headed Pre-emergence (flood test species), scale 0 to 10 (0 no effect, 10 complete control)
[25] = Rate 125 g/ha, Pre-emergence, flood test species, scale 0 to 10 where 0 is no effect and 10 is complete control
[26] = Rate 250 g/ha, Pre-emergence, flood-test species, scale 0 to 10, 0 is no effect, 10 is complete control
[27] = Rate 500 g/ha, Pre-emergence, flood test species, scale 0 to 10 (0 no effect, 10 complete control)

## CC(C)N(C(=O)n1oc(=O)n(Cc2nnsc2Cl)c1=O)c1ccc(F)cc1F [Compound 320]
[1]; [17]
  Bedstraw plant response rating: 0
[1]; [18]
  Bedstraw plant response rating: 0
[1]; [19]
  Bedstraw plant response rating: 0
[1]; [20]
  Bedstraw plant response rating: 0
[2]; [17]
  Blackgrass plant response rating: 0
[2]; Preemergence, Rate 125 g/ha
  Blackgrass plant response rating (0 to 10 scale): 2
[2]; [21]
  Blackgrass plant response rating: 5
[2]; [18]
  Blackgrass plant response rating: 6
[2]; [19]
  Blackgrass plant response rating: 0
[2]; [20]
  Blackgrass plant response rating: 0
[2]; [22]
  Plant response rating, Blackgrass: 0
[2]; [23]
  Blackgrass plant response rating: 0
[3]; [17]
  B. signalgrass plant response rating: 0
[3]; Preemergence, Rate 125 g/ha
  B. signalgrass plant response rating (0 to 10 scale, 0 is no effect, 10 is complete control): 1
[3]; [21]
  B. signalgrass plant response rating: 2
[3]; [18]
  B. signalgrass plant response rating: 3
[3]; [19]
  B. signalgrass plant response rating: 0
[3]; [20]
  B. signalgrass plant response rating: 0
[3]; [22]
  Plant response rating, B. signalgrass: 0
[3]; [23]
  B. signalgrass plant response rating: 0
[4]; [17]
  Corn plant response rating: 0
[4]; Preemergence, Rate 125 g/ha
  Corn plant response rating (0 to 10 scale): 0
[4]; [21]
  Corn plant response rating: 0
[4]; [18]
  Corn plant response rating: 0
[4]; [19]
  Corn plant response rating: 0
[4]; [20]
  Corn plant response rating: 0
[4]; [22]
  Plant response rating, Corn: 0
[4]; [23]
  Corn plant response rating: 0
[5]; [17]
  Crabgrass plant response rating: 2
[5]; Preemergence, Rate 125 g/ha
  Crabgrass plant response rating (0 to 10 scale): 3
[5]; [21]
  Crabgrass plant response rating: 3
[5]; [18]
  Crabgrass plant response rating: 7
[5]; [19]
  Crabgrass plant response rating: 0
[5]; [20]
  Crabgrass plant response rating: 0
[5]; [22]
  Plant response rating, Crabgrass: 0
[6]; [17]
  Giant foxtail plant response rating: 0
[6]; [21]
  Giant foxtail plant response rating: 6
[6]; [18]
  Giant foxtail plant response rating: 7
[6]; [19]
  Giant foxtail plant response rating: 0
[6]; [20]
  Giant foxtail plant response rating: 0
[6]; [22]
  Plant response rating, Giant foxtail: 0
[7]; [17]
  Rape plant response rating: 0
[7]; Preemergence, Rate 125 g/ha
  Rape plant response rating (0 to 10 scale): 0
[7]; [21]
  Rape plant response rating: 0
[7]; [18]
  Rape plant response rating: 0
[7]; [19]
  Rape plant response rating: 0
[7]; [20]
  Rape plant response rating: 3
[7]; [22]
  Plant response rating, Rape: 3
[8]; [17]
  Sugarbeets plant response rating: 0
[8]; Preemergence, Rate 125 g/ha
  Sugarbeets plant response rating (0 to 10 scale): 0
[8]; [21]
  Sugarbeets plant response rating: 0
[8]; [18]
  Sugarbeets plant response rating: 0
[8]; [19]
  Sugarbeets plant response rating: 0
[8]; [20]
  Sugarbeets plant response rating: 2
[8]; [22]
  Plant response rating, Sugarbeets: 2
[9]; [17]
  Velvetleaf plant response rating: 0
[9]; Preemergence, Rate 125 g/ha
  Velvetleaf plant response rating (0 to 10 scale): 0
[9]; [21]
  Velvetleaf plant response rating: 0
[9]; [18]
  Velvetleaf plant response rating: 0
[9]; [19]
  Velvetleaf plant response rating: 0
[9]; [20]
  Velvetleaf plant response rating: 0
[9]; [22]
  Plant response rating, Velvetleaf: 0
[10]; [17]
  Wheat plant response rating: 0
[10]; Preemergence, Rate 125 g/ha
  Wheat plant response rating (0 to 10 scale): 0
[10]; [21]
  Wheat plant response rating: 0
[10]; [18]
  Wheat plant response rating: 0
[10]; [19]
  Wheat plant response rating: 0
[10]; [20]
  Wheat plant response rating: 0
[10]; [22]
  Plant response rating, Wheat: 0
[11]; [17]
  Wild oats plant response rating: 0
[11]; Preemergence, Rate 125 g/ha
  Wild oats plant response rating (0 to 10 scale): 0
[11]; [21]
  Wild oats plant response rating: 0
[11]; [18]
  Wild oats plant response rating: 0
[11]; [19]
  Wild oats plant response rating: 0
[11]; [20]
  Wild oats plant response rating: 0
[11]; [22]
  Plant response rating, Wild oats: 0
[12]; [17]
  Nutsedge plant response rating: 0
[12]; Preemergence, Rate 125 g/ha
  Nutsedge plant response rating (0 to 10 scale): 0
[12]; [21]
  Nutsedge plant response rating: 0
[12]; [18]
  Nutsedge plant response rating: 0
[12]; [19]
  Nutsedge plant response rating: 0
[12]; [20]
  Nutsedge plant response rating: 0
[12]; [22]
  Plant response rating, Nutsedge: 0
[13]; [24]
  Rice plant response rating: 0
[13]; [25]
  Rice plant response rating: 0
[13]; [26]
  Rice plant response rating: 0
[13]; [27]
  Rice plant response rating: 0
[14]; [24]
  S. Flatsedge plant response rating: 0
[14]; [25]
  S. Flatsedge plant response rating: 0
[14]; [26]
  S. Flatsedge plant response rating: 0
[14]; [27]
  S. Flatsedge plant response rating: 0
[15]; [24]
  Ducksalad plant response rating: 0
[15]; [25]
  Ducksalad plant response rating: 0
[15]; [26]
  Ducksalad plant response rating: 0
[15]; [27]
  Ducksalad plant response rating: 0
[16]; [24]
  Barnyardgrass plant response rating: 0
[16]; [25]
  Barnyardgrass plant response rating: 0
[16]; [26]
  Barnyardgrass plant response rating: 0
[16]; [27]
  Barnyardgrass plant response rating: 0
